Assays:
MiaPaca-2 cells = assay: MiaPaca-2 cell proliferation assay; format: cell-based; settings: Homo sapiens, MIA PaCa-2; 67-72 h incubation, resazurin; read-out: MiaPaca-2 (inhibition of cell proliferation, IC50)
Description: Miapaca-2 cells (catalog #CRL-1420) are obtained from the American Type Culture Collect (ATTC, Manassas, VA). Briefly, cells were grown in DMEM supplemented with 10% characterized fetal bovine serum (Invitrogen, Carlsbad, CA), 2.5% New Zealand sourced horse serum and 1% Penicillin/Streptomycin/L-Glutamine at 37° C., 5% CO2, and 95% humidity. Cells are expanded until reaching 70-95% confluency at which point they are sub-cultured or harvested for assay use. A serial dilution of test compound is dispensed into a 384-well black clear bottom plate in triplicate. Seven hundred fifty cells are added per well in 50 μL complete growth medium in the 384-well plate. Plates are incubated for 67-72 h at 37° C., 5% CO2, and 95% humidity. At the end of the incubation, 10 μL of a 440 μM solution of resazurin (Sigma, St. Louis, MO) in PBS is added to each well of the plate and plates are incubated for an additional 5-6 h at 37° C., 5% CO2, and 95% humidity. Plates are read on a Synergy2 or equivalent reader (Biotek, Winooski VT) using an excitation of 540 nm and an emission of 600 nm. Data is analyzed using Prism software (GraphPad, San Diego, CA) to calculate IC50 values.

[1] = biological target: T1, B-Raf kinase (SEQ ID NO: 1) (Homo sapiens, UniProt P15056); assay: Biochemical assay for B-Raf (coupled pyruvate kinase/lactate dehydrogenase); settings: 1 mM ATP; read-out: BRAF (inhibition of biochemical activity, IC50)
T1 construct: GST (N); purchased Sigma

[2] = biological target: T2, C-Raf kinase (SEQ ID NO: 2) (Homo sapiens, UniProt P04049, Y340D/Y341D); assay: Biochemical assay for C-Raf (coupled pyruvate kinase/lactate dehydrogenase); settings: 1 mM ATP; read-out: CRAF (inhibition of biochemical activity, IC50)
T2 construct: C-Raf residues 306-end; Y340D, Y341D with N-; GST (N); purchased Sigma

HPAF-II cells = assay: HPAF-II cell proliferation assay; format: cell-based; settings: Homo sapiens, HPAF-II; 115 to 120 h incubation, resazurin; read-out: HPAF-II (inhibition of cell proliferation, IC50)
Description: (§1) HPAF-II cells (catalog #CRL-1997) are obtained from the American Type Culture Collect (ATCC, Manassas, VA). Briefly, cells are grown in Minimum Essential Media supplemented with 10% characterized fetal bovine serum (Invitrogen, Carlsbad, CA) and 1% Penicillin/Streptomycin/L-Glutamine at 37° C., 5% CO2, and 95% humidity. Cells are expanded until reaching 70-95% confluency at which point they are sub-cultured or harvested for assay use. A serial dilution of test compound is dispensed into a 384-well black clear bottom plate in triplicate. 750 cells are added per well in 50 μL complete growth medium in the 384-well plate. Plates are incubated for 115 to 120 h at 37° C., 5% CO2, and 95% humidity. At the end of the incubation, 40 μL of a […] solution of resazurin (Sigma, St. Louis, MO) in PBS is added to each well of the plate and plates are incubated for an additional 18 to 24 h at 37° C., 5% CO2, and 95% humidity. Plates are read on a Synergy2 or equivalent reader (Biotek, Winooski, VT) using an excitation of 540 nm and an emission of 600 nm. Data is analyzed using Prism software (Graphpad, San Diego, CA) to calculate IC50 values.

HCT-116 cells = assay: HCT-116 cell proliferation assay; format: cell-based; settings: 67 to 72 h incubation, resazurin; for IC50: Homo sapiens, HCT-116, read-out: HCT-116 (inhibition of cell proliferation, IC50)
Description: HCT-116 cells (catalog #CCL-247) are obtained from the American Type Culture Collect (ATCC, Manassas, VA). Briefly, cells are grown in McCoy's 5A supplemented with 10% characterized fetal bovine serum (Invitrogen, Carlsbad, CA) and 1% Penicillin/Streptomycin/L-Glutamine at 37° C., 5% CO2, and 95% humidity. Cells are expanded until reaching 70-95% confluency at which point they are sub-cultured or harvested for assay use. A serial dilution of test compound is dispensed into a 384-well black clear bottom plate in triplicate. 375 cells are added per well in 50 μL complete growth medium in the 384-well plate. Plates are incubated for 67 to 72 h at 37° C., 5% CO2, and 95% humidity. At the end of the incubation, 40 μL of a […] solution of resazurin (Sigma, St. Louis, MO) in PBS is added to each well of the plate and plates are incubated for an additional 4 to 5 h at 37° C., 5% CO2, and 95% humidity. Plates are read on a Synergy2 or equivalent reader (Biotek, Winooski, VT) using an excitation of 540 nm and an emission of 600 nm. Data is analyzed using Prism software (Graphpad, San Diego, CA) to calculate IC50 values.

Pa16c cells = assay: Pa16c cell proliferation assay; format: cell-based; settings: 67 to 72 h incubation, resazurin; read-out: Pa16c (inhibition of cell proliferation, IC50)
Description: as §1, with “Pa16c” for “HPAF-II”, “cells” for “cells (catalog #CRL-1997)”, “Dr. Channing Der, University of North Carolina at Chapel Hill.” for “the American Type Culture Collect (ATCC, Manassas, VA).”, “Dulbecco's Modified Eagle Medium” for “Minimum Essential Media”, “67” for “115”, “72” for “120”

T1 sequence (P15056 416-766): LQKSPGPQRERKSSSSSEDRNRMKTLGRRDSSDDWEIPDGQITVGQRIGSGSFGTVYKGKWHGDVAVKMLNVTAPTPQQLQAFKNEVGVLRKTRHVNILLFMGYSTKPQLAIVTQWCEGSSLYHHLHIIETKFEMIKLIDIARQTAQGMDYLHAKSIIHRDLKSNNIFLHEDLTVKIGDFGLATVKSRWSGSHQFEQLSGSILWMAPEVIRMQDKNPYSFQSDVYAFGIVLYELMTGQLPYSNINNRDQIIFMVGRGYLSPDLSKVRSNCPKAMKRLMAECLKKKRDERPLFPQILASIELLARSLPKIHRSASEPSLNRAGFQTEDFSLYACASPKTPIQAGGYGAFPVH
T2 sequence (P04049 307-648 Y340D/Y341D): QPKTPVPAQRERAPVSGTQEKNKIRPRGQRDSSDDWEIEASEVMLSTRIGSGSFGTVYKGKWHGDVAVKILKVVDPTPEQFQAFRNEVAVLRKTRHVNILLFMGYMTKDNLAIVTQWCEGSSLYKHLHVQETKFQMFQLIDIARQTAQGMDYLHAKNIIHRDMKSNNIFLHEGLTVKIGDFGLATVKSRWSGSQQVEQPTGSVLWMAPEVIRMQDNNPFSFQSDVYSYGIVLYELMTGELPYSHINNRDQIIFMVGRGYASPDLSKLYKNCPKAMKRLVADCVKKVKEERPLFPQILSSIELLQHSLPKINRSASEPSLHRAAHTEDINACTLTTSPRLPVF

Row | SMILES | IC50 (MiaPaca-2 cells) | IC50 [1] | IC50 [2] | IC50 (HCT-116 cells) | IC50 (HPAF-II cells) | IC50 (Pa16c cells) | HCT-116 (inhibition of cell proliferation, IC50) (HCT-116 cells)
1 | Cc1ccc(NC(=O)c2cc(C(F)(F)F)cnn2)cc1-c1cncc(N2CCOCC2)n1 [Example 59] | 500 to 1000 nM | 1000 to 10000 nM | 1000 to 10000 nM | 500 to 1000 nM | 500 to 1000 nM | 100 to 500 nM | –
2 | Cc1ccc(NC(=O)c2cc(C(C)C)cnn2)cc1-c1cncc(N2CCOCC2)n1 [Example 56] | 1000 to 10000 nM | 100 to 500 nM | 100 to 500 nM | 1000 to 10000 nM | 1000 to 10000 nM | 1000 to 10000 nM | –
3 | Cc1ccc(NC(=O)c2cc(C3CC3)cnn2)cc1-c1ccnc(N2C[C@@H](C)O[C@@H](C)C2)c1 [Example 85] | 1000 to 10000 nM | 1000 to 10000 nM | 1000 to 10000 nM | 1000 to 10000 nM | 1000 to 10000 nM | 1000 to 10000 nM | –
4 | Cc1ccc(NC(=O)c2cc(Cl)cnn2)cc1-c1cccc(N2CCOCC2)c1 [Example 75] | 1000 to 10000 nM | 1000 to 10000 nM | 1000 to 10000 nM | 1000 to 10000 nM | 1000 to 10000 nM | 1000 to 10000 nM | –
5 | Cc1ccc(NC(=O)c2cc(C(F)(F)F)cnn2)cc1-c1cc(OCCO)nc(N2CCOCC2)n1 [Example 30] | 100 to 500 nM | 500 to 1000 nM | 100 to 500 nM | 100 to 500 nM | 100 to 500 nM | 100 to 500 nM | –
6 | Cc1ccc(NC(=O)c2cncc(C3CC3)c2)cc1-c1cc(N[C@H](C)CO)nc(N2CCOCC2)c1 [Example 18] | 100 to 500 nM | < 100 nM | < 100 nM | 100 to 500 nM | 100 to 500 nM | 1000 to 10000 nM | –
7 | Cc1ccc(NC(=O)c2cc(C(F)(F)F)cnn2)cc1-c1cc(N[C@H](C)CO)nc(N2CC3CC(C2)O3)c1 [Example 7] | < 100 nM | 100 to 500 nM | 100 to 500 nM | – | < 100 nM | 500 to 1000 nM | ++ ++
8 | CNc1cc(N2C[C@H]3C[C@@H]2CO3)nc(-c2cc(NC(=O)c3cc(C(F)(F)F)cnn3)ccc2C)n1 [Example 91] | 500 to 1000 nM | 1000 to 10000 nM | 1000 to 10000 nM | 1000 to 10000 nM | 1000 to 10000 nM | 1000 to 10000 nM | –

More lines, main results first:

Row | IC50 (MiaPaca-2 cells) | IC50 [1] | IC50 [2] | IC50 (HCT-116 cells) | SMILES | IC50 (HPAF-II cells) | IC50 (Pa16c cells) | HCT-116 (inhibition of cell proliferation, IC50) (HCT-116 cells)
9 | < 100 nM | 100 to 500 nM | < 100 nM | < 100 nM | CNc1cc(-c2cc(NC(=O)c3cc(C4CC4)cnn3)ccc2C)cc(N2CCOCC2)n1 [Example 60] | < 100 nM | < 100 nM | –
10 | < 100 nM | < 100 nM | < 100 nM | < 100 nM | Cc1ccc(NC(=O)c2cc(C(C)(F)F)cnn2)cc1-c1cc(NCCO)nc(N2CCOCC2)c1 [Example 64] | < 100 nM | < 100 nM | –
11 | < 100 nM | 100 to 500 nM | 100 to 500 nM | 100 to 500 nM | Cc1ccc(NC(=O)c2cc(C(F)(F)F)cnn2)cc1-c1cc(C2CC2)nc(N2CCOCC2)c1 [Example 3] | 100 to 500 nM | < 100 nM | –
12 | 100 to 500 nM | 100 to 500 nM | 100 to 500 nM | 100 to 500 nM | Cc1ccc(NC(=O)c2cc(C(F)(F)F)cnn2)cc1-c1ccnc(N2CCOC(C(F)F)C2)c1 (stereo not drawn) [Example 26] | 100 to 500 nM | 500 to 1000 nM | –
13 | 100 to 500 nM | < 100 nM | < 100 nM | 100 to 500 nM | Cc1cc(-c2cc(NC(=O)c3cc(C(F)(F)F)cnn3)ccc2C)cc(N2CCOCC2)n1 [Example 4] | < 100 nM | < 100 nM | –
14 | < 100 nM | 100 to 500 nM | 100 to 500 nM | 100 to 500 nM | Cc1ccc(NC(=O)c2cc(C(F)(F)F)cnn2)cc1-c1ccnc(N2CCOCC2)c1 [Example 1, N-(4-methyl-3-(2-morpholinopyridin-4-yl)phenyl)-5-(trifluoromethyl)pyridazine-3-carboxamide] | 100 to 500 nM | 100 to 500 nM | –
15 | 100 to 500 nM | < 100 nM | < 100 nM | 100 to 500 nM | Cc1cc(-c2cc(NC(=O)c3cc(C4CC4)cnn3)ccc2C)cc(N2CCOCC2)n1 [Example 20] | 100 to 500 nM | 1000 to 10000 nM | –

Source: patent publication US20250206729A1, “DUAL RAF AND TUBULIN INHIBITORS AND METHODS OF USE THEREOF” (Deciphera Pharmaceuticals, LLC, priority 2023, published 2025)
